Assay results from PubChem BioAssay AID504328 (The Scripps Research Institute Molecular Screening Center, 2011).
Activity calls are given as the source filed them.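 Rule for the calls: active = EC50 at or below 10 µM; inactive = EC50 above 10 µM.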

Target: Caspase-3 (Homo sapiens) (UniProt P42574)
Assay: activators of human procaspase-3 D3A mutant – biochemical, absorbance, PC-3 D3A mutant, counter-screen for dual procaspase-3/7 activator project, dose response (AID 504328)
Settings: recombinant PC-3 D3A, Ac-DEVD-pNA absorbance 405 nm

Chain of Caspase-3 (Homo sapiens) (P42574 whole entry D9A/D28A/D175A): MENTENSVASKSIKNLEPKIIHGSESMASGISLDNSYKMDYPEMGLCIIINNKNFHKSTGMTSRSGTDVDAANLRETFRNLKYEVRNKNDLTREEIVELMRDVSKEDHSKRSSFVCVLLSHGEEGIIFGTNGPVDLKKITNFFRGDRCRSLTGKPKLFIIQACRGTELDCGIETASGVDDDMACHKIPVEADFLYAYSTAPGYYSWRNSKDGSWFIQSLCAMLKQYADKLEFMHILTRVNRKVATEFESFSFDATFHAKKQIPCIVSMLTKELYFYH

In the case of CCOc1ccc(N=CC2=C(O)CC(c3ccco3)CC2=O)cc1 (stereo unspecified), the EC50 is reported as > 85.3 µM (inactive).
